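Interpolation was linear, between the two tested concentrations surrounding the appropriate level; five concentrations were tested over 48 hours in 96-well plates. GI50: concentration for 50% inhibition of growth.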 The source made the active and inactive calls. No stated cut-off is given here; in the data, active = GI50 up to about 1.1 µM and inactive = higher.
Legend:
Assay in all cases: inhibition of tumour cell growth, NCI panel, 48 h
RXF 393 = tested on: RXF 393
EKVX = tested on: EKVX
SNB-19 = tested on: SNB-19
XF498 = tested on: XF498
CCRF-CEM = tested on: CCRF-CEM
MOLT-4 = tested on: MOLT-4
LOX IMVI = tested on: LOX IMVI
SK-MEL-5 = tested on: SK-MEL-5
SNB-75 = tested on: SNB-75
HCT-15 = tested on: HCT-15
HOP-92 = tested on: HOP-92
TK-10 = tested on: TK-10
UACC-257 = tested on: UACC-257
M19-MEL = tested on: M19-MEL
786-0 = tested on: 786-0
COLO 205 = tested on: COLO 205
SW-620 = tested on: SW-620
SR = tested on: SR
DMS-273 = tested on: DMS-273
KM-20L2 = tested on: KM-20L2
A549 = tested on: A549
DLD-1 = tested on: DLD-1
SF-295 = tested on: SF-295
UO-31 = tested on: UO-31
NCI-H226 = tested on: NCI-H226
M14 = tested on: M14
SK-OV-3 = tested on: SK-OV-3
SF-268 = tested on: SF-268
OVCAR-4 = tested on: OVCAR-4
HL-60 = tested on: HL-60
K562 = tested on: K562
U-251 = tested on: U-251
OVCAR-5 = tested on: OVCAR-5
SF-539 = tested on: SF-539
HT-29 = tested on: HT-29
RPMI-8226 = tested on: RPMI-8226
HCC 2998 = tested on: HCC 2998
SN12C = tested on: SN12C
HCT-116 = tested on: HCT-116
LXFL 529 = tested on: LXFL 529
ACHN = tested on: ACHN
KM12 = tested on: KM12
RXF 631 = tested on: RXF 631
UACC-62 = tested on: UACC-62
OVCAR-8 = tested on: OVCAR-8
HOP-62 = tested on: HOP-62
NCI-H522 = tested on: NCI-H522
OVCAR-3 = tested on: OVCAR-3
HOP-18 = tested on: HOP-18
NCI-H23 = tested on: NCI-H23
Malme-3M = tested on: Malme-3M
NCI-H460 = tested on: NCI-H460
SK-MEL-2 = tested on: SK-MEL-2
IGROV-1 = tested on: IGROV-1
DMS-114 = tested on: DMS-114
SK-MEL-28 = tested on: SK-MEL-28
A498 = tested on: A498
CAKI-1 = tested on: CAKI-1

SMILES: CC(C)=CC(C(O)c1ccccc1)S(=O)(=O)c1nccn1C (configuration not stated)
- GI50 (RXF 393): > 100 µM (inactive)
- GI50 (EKVX): > 100 µM (inactive)
- GI50 (SNB-19): > 100 µM (inactive)
- GI50 (XF498): > 100 µM (inactive)
- GI50 (CCRF-CEM): > 100 µM (inactive)
- GI50 (MOLT-4): > 100 µM (inactive)
- GI50 (LOX IMVI): > 100 µM (inactive)
- GI50 (SK-MEL-5): > 100 µM (inactive)
- GI50 (SNB-75): > 100 µM (inactive)
- GI50 (HCT-15): > 100 µM
- GI50 (HOP-92): > 100 µM (inactive)
- GI50 (TK-10): > 100 µM (inactive)
- GI50 (UACC-257): > 100 µM (inactive)
- GI50 (M19-MEL): > 100 µM (inactive)
- GI50 (786-0): > 100 µM (inactive)
- GI50 (COLO 205): > 100 µM (inactive)
- GI50 (SW-620): > 100 µM (inactive)
- GI50 (SR): > 100 µM (inactive)
- GI50 (DMS-273): > 100 µM (inactive)
- GI50 (KM-20L2): > 100 µM (inactive)
- GI50 (A549): > 100 µM (inactive)
- GI50 (DLD-1): > 100 µM (inactive)
- GI50 (SF-295): > 100 µM (inactive)
- GI50 (UO-31): > 100 µM (inactive)
- GI50 (NCI-H226): > 100 µM (inactive)
- GI50 (M14): > 100 µM (inactive)
- GI50 (SK-OV-3): > 100 µM (inactive)
- GI50 (SF-268): > 100 µM (inactive)
- GI50 (OVCAR-4): > 100 µM (inactive)
- GI50 (HL-60): > 100 µM (inactive)
- GI50 (K562): > 100 µM (inactive)
- GI50 (U-251): > 100 µM (inactive)
- GI50 (OVCAR-5): > 100 µM (inactive)
- GI50 (SF-539): > 100 µM (inactive)
- GI50 (HT-29): > 100 µM (inactive)
- GI50 (RPMI-8226): > 100 µM (inactive)
- GI50 (HCC 2998): > 100 µM (inactive)
- GI50 (SN12C): > 100 µM (inactive)
- GI50 (HCT-116): > 100 µM (inactive)
- GI50 (LXFL 529): > 100 µM (inactive)
- GI50 (ACHN): > 100 µM (inactive)
- GI50 (KM12): > 100 µM (inactive)
- GI50 (RXF 631): > 100 µM (inactive)
- GI50 (UACC-62): > 100 µM (inactive)
- GI50 (OVCAR-8): > 100 µM (inactive)
- GI50 (HOP-62): > 100 µM (inactive)
- GI50 (NCI-H522): > 100 µM (inactive)
- GI50 (OVCAR-3): > 100 µM (inactive)
- GI50 (HOP-18): > 100 µM (inactive)
- GI50 (NCI-H23): > 100 µM (inactive)
- GI50 (Malme-3M): > 100 µM (inactive)
- GI50 (NCI-H460): > 100 µM (inactive)
- GI50 (SK-MEL-2): > 100 µM (inactive)
- GI50 (IGROV-1): > 100 µM (inactive)
- GI50 (DMS-114): > 100 µM (inactive)
- GI50 (SK-MEL-28): > 100 µM (inactive)

SMILES: CCCCCCCCSC(=O)NCCCC
- GI50 (A498): 54.1 µM (inactive)
- GI50 (RXF 393): 21.5 µM (inactive)
- GI50 (EKVX): 27.8 µM (inactive)
- GI50 (SNB-19): 34.6 µM (inactive)
- GI50 (XF498): 21.4 µM (inactive)
- GI50 (CCRF-CEM): 28.2 µM (inactive)
- GI50 (MOLT-4): 23.2 µM (inactive)
- GI50 (LOX IMVI): 19.9 µM (inactive)
- GI50 (SK-MEL-5): 22.2 µM (inactive)
- GI50 (SNB-75): 24.6 µM (inactive)
- GI50 (CAKI-1): 36.1 µM (inactive)
- GI50 (HCT-15): 27.2 µM
- GI50 (HOP-92): 14.4 µM (inactive)
- GI50 (TK-10): 46.7 µM (inactive)
- GI50 (M19-MEL): 42.1 µM (inactive)
- GI50 (786-0): 38.1 µM (inactive)
- GI50 (COLO 205): 54.6 µM (inactive)
- GI50 (SW-620): 75.3 µM (inactive)
- GI50 (DMS-273): 35 µM (inactive)
- GI50 (KM-20L2): 23.7 µM (inactive)
- GI50 (A549): 38.2 µM (inactive)
- GI50 (DLD-1): 35.8 µM (inactive)
- GI50 (SF-295): 38.5 µM (inactive)
- GI50 (UO-31): 19.6 µM (inactive)
- GI50 (M14): 25.8 µM (inactive)
- GI50 (SK-OV-3): > 100 µM (inactive)
- GI50 (SF-268): 35.8 µM (inactive)
- GI50 (OVCAR-4): 33.5 µM (inactive)
- GI50 (HL-60): 18.7 µM (inactive)
- GI50 (K562): 38.2 µM (inactive)
- GI50 (U-251): 35.5 µM (inactive)
- GI50 (OVCAR-5): 48.4 µM (inactive)
- GI50 (SF-539): 74 µM (inactive)
- GI50 (HT-29): 26.4 µM (inactive)
- GI50 (RPMI-8226): 20.3 µM (inactive)
- GI50 (SN12C): 33 µM (inactive)
- GI50 (LXFL 529): 37.8 µM (inactive)
- GI50 (ACHN): 34.7 µM (inactive)
- GI50 (KM12): 51.8 µM (inactive)
- GI50 (RXF 631): 39.4 µM (inactive)
- GI50 (UACC-62): 43 µM (inactive)
- GI50 (OVCAR-8): 36.6 µM (inactive)
- GI50 (NCI-H522): 27.1 µM (inactive)
- GI50 (OVCAR-3): 41.3 µM (inactive)
- GI50 (HOP-18): 94.6 µM (inactive)
- GI50 (NCI-H23): 49.7 µM (inactive)
- GI50 (Malme-3M): 24.5 µM (inactive)
- GI50 (NCI-H460): 34 µM (inactive)
- GI50 (SK-MEL-2): 17.7 µM (inactive)
- GI50 (IGROV-1): > 100 µM (inactive)
- GI50 (SK-MEL-28): 29 µM (inactive)
